Counter-ions that a name gives are not always drawn. Like-named read-outs stand apart in the source and are kept apart here.
Target: GCN2 (Homo sapiens, UniProt Q9P2K8)
Test: GCN2 enzymatic endpoint assay: phosphorylation of GFP-eIF2α measured by TR-FRET (Lanthascreen)
Type: biochemical
In short: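 Endpoint GCN2 reaction with low ATP (2 μM) and 80 nM GFP-eIF2α, room temperature, 90 minutes. Detection mix with EDTA and Tb-labelled antibody; 520 nm/495 nm emission ratio reported.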

[1] = tested as described in Example 77, compound and/or hydrochloride, dihydrochloride or trifluoroacetic acid salt, read-out: IC 50 Activity
[2] = GCN2 biochemical IC50, 4 nM GCN2, 2 μM ATP, 80 nM GFP-eIF2α, 90 min RT, read-out: GCN2 activity

GCN2, sequence (Q9P2K8 whole entry): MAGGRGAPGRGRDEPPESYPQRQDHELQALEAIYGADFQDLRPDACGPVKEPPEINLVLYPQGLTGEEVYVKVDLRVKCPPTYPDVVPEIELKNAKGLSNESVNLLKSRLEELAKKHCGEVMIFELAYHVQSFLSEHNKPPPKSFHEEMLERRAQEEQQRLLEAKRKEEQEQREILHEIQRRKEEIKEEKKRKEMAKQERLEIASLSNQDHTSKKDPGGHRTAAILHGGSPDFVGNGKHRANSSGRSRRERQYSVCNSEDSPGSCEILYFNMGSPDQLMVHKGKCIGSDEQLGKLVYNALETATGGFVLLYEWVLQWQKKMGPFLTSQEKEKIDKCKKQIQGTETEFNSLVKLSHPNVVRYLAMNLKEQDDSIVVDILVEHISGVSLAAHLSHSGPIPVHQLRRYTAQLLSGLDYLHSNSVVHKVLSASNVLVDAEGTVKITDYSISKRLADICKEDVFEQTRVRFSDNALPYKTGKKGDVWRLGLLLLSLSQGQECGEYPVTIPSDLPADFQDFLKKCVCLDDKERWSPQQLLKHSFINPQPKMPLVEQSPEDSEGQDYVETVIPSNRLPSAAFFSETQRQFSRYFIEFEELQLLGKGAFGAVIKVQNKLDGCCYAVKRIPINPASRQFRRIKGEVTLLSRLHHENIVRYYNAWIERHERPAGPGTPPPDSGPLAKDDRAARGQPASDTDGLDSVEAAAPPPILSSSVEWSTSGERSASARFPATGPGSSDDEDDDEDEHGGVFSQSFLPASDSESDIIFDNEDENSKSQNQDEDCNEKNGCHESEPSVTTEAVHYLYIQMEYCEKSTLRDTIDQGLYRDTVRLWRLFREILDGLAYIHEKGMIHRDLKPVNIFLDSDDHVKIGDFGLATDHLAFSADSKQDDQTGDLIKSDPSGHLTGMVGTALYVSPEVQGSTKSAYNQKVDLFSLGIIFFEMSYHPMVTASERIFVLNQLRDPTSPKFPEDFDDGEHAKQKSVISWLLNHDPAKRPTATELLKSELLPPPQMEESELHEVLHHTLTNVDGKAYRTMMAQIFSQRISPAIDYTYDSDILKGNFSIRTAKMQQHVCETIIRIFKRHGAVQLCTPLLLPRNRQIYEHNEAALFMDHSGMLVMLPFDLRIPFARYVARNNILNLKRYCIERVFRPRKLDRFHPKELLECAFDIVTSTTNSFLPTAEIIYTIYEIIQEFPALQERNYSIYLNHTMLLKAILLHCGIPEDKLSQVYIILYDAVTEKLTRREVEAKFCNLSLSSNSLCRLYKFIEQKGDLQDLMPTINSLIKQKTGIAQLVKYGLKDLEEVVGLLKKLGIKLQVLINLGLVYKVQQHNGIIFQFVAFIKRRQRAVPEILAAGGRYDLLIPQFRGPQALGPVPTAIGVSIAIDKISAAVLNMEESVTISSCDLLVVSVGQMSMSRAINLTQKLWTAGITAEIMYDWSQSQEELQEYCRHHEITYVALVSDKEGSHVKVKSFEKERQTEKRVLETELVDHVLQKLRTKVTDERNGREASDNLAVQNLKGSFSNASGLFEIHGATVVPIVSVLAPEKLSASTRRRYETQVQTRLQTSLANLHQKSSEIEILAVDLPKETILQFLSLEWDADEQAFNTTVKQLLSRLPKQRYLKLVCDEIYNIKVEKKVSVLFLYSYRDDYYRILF

**Q.** How did the IC50 [1] turn out when CNC(=O)[C@]1(C)CC[C@@H](Nc2ncc3c(Br)nn(-c4cc(F)c5ncc(C(C)(C)N)cc5c4)c3n2)C1 [(1R,3R)-3-[[1-[3-(1-amino-1-methyl-ethyl)-8-fluoro-6-quinolyl]-3-bromo-pyrazolo [3,4-d]pyrimidin-6-yl]amino]-N,1-dimethyl-cyclopentanecarboxamide] was run?
**A.** 25 to 200 nM

**Q.** Which IC50 [1] does the source give for CNC(=O)[C@]1(C)CC[C@@H](Nc2ncc3c(Br)nn(-c4ccc(C#N)c(OCCOC)c4)c3n2)C1 [(1R,3R)-3-[[3-bromo-1-[4-cyano-3-(2-methoxyethoxy)phenyl]pyrazolo[3,4-d]pyrimidin-6-yl]amino]-N,1-dimethyl-cyclopentanecarboxamide] here?
**A.** 25 to 200 nM

**Q.** For C[C@@H]1CNC[C@H](C)N1C(=O)[C@@H]1CC[C@@H](Nc2ncc3c(Br)nn(-c4ccc5ncccc5c4)c3n2)C1 [((1R,3R)-3-((3-bromo-1-(quinolin-6-yl)-1H-pyrazolo[3,4-d]pyrimidin-6-yl)amino)cyclo-pentyl)((2R,6S)-2,6-dimethylpiperazin-1-yl)methanone], which IC50 [1] is on record?
**A.** < 25 nM

**Q.** For CNC(=O)[C@]1(C)CC[C@@H](Nc2ncc3c(Br)nn(-c4ccc(N5CCOCC5)c(C#N)c4)c3n2)C1 [Example 59, (1R,3R)-3-((3-bromo-1-(3-cyano-4-morpholinophenyl)-1H-pyrazolo[3,4-d]pyrimidin-6-yl)amino)-N,1-dimethylcyclopentane-1-carboxamide hydrochloride], which IC50 [2] is on record?
**A.** 25 to 200 nM

**Q.** How did the IC50 [1] turn out when CNC(=O)[C@@H]1CC[C@@H](Nc2ncc3c(Br)nn(-c4cc(F)c5nc(C)ccc5c4)c3n2)C1 [(1R,3R)-3-((3-bromo-1-(8-fluoro-2-methyl-quinolin-6-yl)-1H-pyrazolo[3,4-d]pyrimidin-6-yl)amino)-N-methylcyclopentane-1-carboxamide] was run?
**A.** 25 to 200 nM

**Q.** With CNC(=O)[C@]1(C)CC[C@@H](Nc2ncc3c(Br)nn(-c4cc(CNCCOC)cc(OC(F)(F)F)c4)c3n2)C1 [(1R,3R)-3-[[3-bromo-1-[3-[(2-methoxy-ethylamino)methyl]-5-(trifluoromethoxy)phenyl]pyrazolo[3,4-d]pyrimidin-6-yl]amino]-N,1-dimethyl-cyclopentanecarboxamide] as the compound, how does the IC50 [1] read?
**A.** 25 to 200 nM

**Q.** For CCNC(=O)[C@@H]1CC[C@@H](Nc2ncc3c(Br)nn(-c4cc(F)c5ncccc5c4)c3n2)C1 [(1R,3R)-3-[[3-bromo-1-(8-fluoro-6-quinolyl)pyrazolo[3,4-d]pyrimidin-6-yl]amino]-N-ethyl-cyclopentanecarboxamide], which IC50 [1] is on record?
**A.** 25 to 200 nM

**Q.** Which IC50 [1] does the source give for CNC(=O)[C@]1(C)CC[C@@H](Nc2ncc3c(Br)nn(-c4ccc5c(c4)C(=O)C(=O)N5)c3n2)C1 [(1R,3R)-3-[[3-bromo-1-(2,3-dioxo-indolin-5-yl)pyrazolo[3,4-d]pyrimidin-6-yl]amino]-N,1-dimethyl-cyclo-pentanecarboxamide] here?
**A.** 25 to 200 nM

**Q.** How did the IC50 [1] turn out when CNC(=O)C1(CCC#N)CC[C@@H](Nc2ncc3c(Br)nn(-c4ccc(-c5nnc(C)s5)c(CCC#N)c4)c3n2)C1 (stereo partly drawn) [(3R)-3-[[3-bromo-1-[3-(2-cyanoethyl)-4-(5-methyl-1,3,4-thiadiazol-2-yl)phenyl]pyrazolo[3,4-d]pyrimidin-6-yl]amino]-1-(2-cyanoethyl)-N-methyl-cyclopentanecarboxamide] was run?
**A.** 25 to 200 nM

**Q.** With CS(=O)(=O)CCNC(=O)[C@@H]1CC[C@@H](Nc2ncc3c(Br)nn(-c4ccc5nccnc5c4)c3n2)C1 [(1R,3R)-3-((3-bromo-1-(quinoxalin-6-yl)-1H-pyrazolo[3,4-d]pyrimidin-6-yl)amino)-N-(2-(methylsulfonyl)ethyl)cyclopentane-1-carboxamide] as the compound, how does the IC50 [1] read?
**A.** 200 to 500 nM

**Q.** With COC1CCN(C(=O)[C@]2(C)CC[C@@H](Nc3ncc4c(Br)nn(-c5cc(F)c6ncccc6c5)c4n3)C2)C1 (stereo partly drawn) [[(1R,3R)-3-[[3-bromo-1-(8-fluoro-6-quinolyl)pyrazolo[3,4-d]pyrimidin-6-yl]amino]-1-methyl-cyclopentyl]-(3-methoxypyrrolidin-1-yl)methanone] as the compound, how does the IC50 [1] read?
**A.** 25 to 200 nM

**Q.** Which IC50 [1] does the source give for CNC(=O)[C@]1(C)CC[C@@H](Nc2ncc3c(Br)nn(-c4cc(Cl)cc(NC(=O)C5CNC5)c4)c3n2)C1 [N-[3-[3-bromo-6-[[(1R,3R)-3-methyl-3-(methylcarbamoyl)cyclopentyl]amino]pyrazolo[3,4-d]pyrimidin-1-yl]-5-chloro-phenyl]azetidine-3-carboxamide] here?
**A.** 25 to 200 nM

**Q.** Which IC50 [2] does the source give for COCCNC(=O)[C@@H]1CC[C@@H](Nc2ncc3c(Br)nn(-c4ccc5ncccc5c4)c3n2)C1 [Example 1, (1R,3R)-3-((3-bromo-1-(quinolin-6-yl)-1H-pyrazolo[3,4-d]pyrimidin-6-yl)amino)-N-(2-methoxyethyl)cyclopentane-1-carboxamide] here?
**A.** < 25 nM

**Q.** CNC(=O)[C@]1(CO)CC[C@@H](Nc2ncc3c(Br)nn(-c4ccc(-c5nnc(C)s5)cc4)c3n2)C1 [(1R,3R)-3-[[3-bromo-1-[4-(5-methyl-1,3,4-thiadiazol-2-yl)phenyl]pyrazolo [3,4-d]pyrimidin-6-yl]amino]-1-(hydroxymethyl)-N-methyl-cyclo-pentanecarboxamide] was tested. Which IC50 [1] did it give?
**A.** 25 to 200 nM

**Q.** With CC[C@@]1(C(=O)NC)CC[C@@H](Nc2ncc3c(I)nn(-c4cc(F)c5ncccc5c4)c3n2)C1 [(1R,3R)-1-ethyl-3-[[1-(8-fluoro-6-quinolyl)-3-iodo-pyrazolo[3,4-d]pyrimidin-6-yl]amino]-N-methyl-cyclopentanecarboxamide] as the compound, how does the IC50 [1] read?
**A.** < 25 nM

**Q.** With CN(C)C(=O)C1(NC(=O)[C@@H]2CC[C@@H](Nc3ncc4c(Br)nn(-c5cc(F)c6ncccc6c5)c4n3)C2)CC1 [(1R,3R)-3-[[3-bromo-1-(8-fluoro-6-quinolyl)pyrazolo[3,4-d]pyrimidin-6-yl]amino]-N-[1-(dimethylcarbamoyl)cyclopropyl]cyclo-pentanecarboxamide] as the compound, how does the IC50 [1] read?
**A.** 25 to 200 nM

**Q.** COCCNC(=O)[C@@H]1CC[C@@H](Nc2ncc3c(Br)nn(-c4ccc(-c5ccn[nH]5)cc4)c3n2)C1 [(1R,3R)-3-((1-(4-(1H-pyrazol-5-yl)phenyl)-3-bromo-1H-pyrazolo[3,4-d]pyrimidin-6-yl)amino)-N-(2-methoxyethyl)cyclopentane-1-carboxamide] was tested. Which IC50 [1] did it give?
**A.** 200 to 500 nM

**Q.** Which IC50 [1] does the source give for CNc1ncc2cc(-n3nc(Br)c4cnc(N[C@@H]5CCC(C)(O)C5)nc43)ccc2n1 (stereo partly shown) here?
**A.** 25 to 200 nM

**Q.** CNC(=O)C1(C)CC[C@@H](Nc2ncc3c(Br)nn(-c4ccc(Cn5ccnc5)cc4)c3n2)C1 (stereo partly drawn) [(3R)-3-[[3-bromo-1-[4-(imidazol-1-ylmethyl)phenyl]pyrazolo[3,4-d]pyrimidin-6-yl]amino]-N,1-dimethyl-cyclopentanecarboxamide] was tested. Which IC50 [1] did it give?
**A.** 25 to 200 nM

**Q.** How did the IC50 [1] turn out when Cc1nnc(-c2ccc(-n3nc(Br)c4cnc(N[C@@H]5CC[C@@H](NC(=O)C(C)C)C5)nc43)cc2CCC#N)s1 [N-[(1R,3R)-3-[[3-bromo-1-[3-(2-cyanoethyl)-4-(5-methyl-1,3,4-thiadiazol-2-yl)phenyl]pyrazolo[3,4-d]pyrimidin-6-yl]amino]cyclopentyl]-2-methyl-propanamide] was run?
**A.** 500 to 1000 nM

**Q.** With CNC(=O)[C@]1(C)CC[C@@H](Nc2ncc3c(Br)nn(-c4ccc(-c5ccon5)cc4)c3n2)C1 [(1R,3R)-3-[[3-bromo-1-(4-isoxazol-3-ylphenyl)pyrazolo[3,4-d]pyrimidin-6-yl]amino]-N,1-dimethyl-cyclopentane-carboxamide] as the compound, how does the IC50 [1] read?
**A.** 25 to 200 nM

**Q.** For CNC(=O)[C@]1(C)CC[C@@H](Nc2ncc3c(Br)nn(-c4cc(Br)cc(CN)c4)c3n2)C1, which IC50 [1] is on record?
**A.** 25 to 200 nM

**Q.** Which IC50 [1] does the source give for CNC(=O)[C@]1(C)CC[C@@H](Nc2ncc3c(Br)nn(-c4cc(CN5C(=O)CNCC5=O)c5ncccc5c4)c3n2)C1 [(1R,3R)-3-[[3-bromo-1-[8-[(2,6-dioxo-piperazin-1-yl)methyl]-6-quinolyl]pyrazolo [3,4-d]pyrimidin-6-yl]amino]-N,1-dimethyl-cyclopentanecarboxamide] here?
**A.** 25 to 200 nM

**Q.** CNC(=O)[C@]1(CC(F)F)CC[C@@H](Nc2ncc3c(Br)nn(-c4ccc(-c5cnccn5)cc4)c3n2)C1 [(1R,3R)-3-[[3-bromo-1-(4-pyrazin-2-ylphenyl)pyrazolo[3,4-d]pyrimidin-6-yl]amino]-1-(2,2-difluoroethyl)-N-methyl-cyclopentanecarboxamide] was tested. Which IC50 [1] did it give?
**A.** 25 to 200 nM

**Q.** With CNC(=O)[C@@H]1CC[C@@H](Nc2ncc3c(Br)nn(-c4cnc5c(C#N)cccc5c4)c3n2)C1 [(1R,3R)-3-[[3-bromo-1-(8-cyano-3-quinolyl)pyrazolo[3,4-d]pyrimidin-6-yl]amino]-N-methyl-cyclopentanecarboxamide] as the compound, how does the IC50 [1] read?
**A.** 25 to 200 nM

**Q.** For CNC(=O)[C@]1(C)CC[C@@H](Nc2ncc3c(Br)nn(-c4ccc5ncsc5c4)c3n2)C1 [(1R,3R)-3-[[1-(1,3-benzothiazol-6-yl)-3-bromo-pyrazolo[3,4-d]pyrimidin-6-yl]amino]-N,1-dimethyl-cyclopentane-carboxamide], which IC50 [1] is on record?
**A.** 25 to 200 nM

**Q.** How did the IC50 [1] turn out when Cn1cccc(NC(=O)[C@@H]2CC[C@@H](Nc3ncc4c(Br)nn(-c5cc(F)c6ncccc6c5)c4n3)C2)c1=O [(1R,3R)-3-[[3-bromo-1-(8-fluoro-6-quinolyl)pyrazolo[3,4-d]pyrimidin-6-yl]amino]-N-(1-methyl-2-oxo-3-pyridyl)cyclopentane-carboxamide] was run?
**A.** 25 to 200 nM

**Q.** With CNC(=O)[C@]1(C)CC[C@@H](Nc2ncc3c(Br)nn(-c4ccc5nc(OC)ccc5c4)c3n2)C1 [(1R,3R)-3-[[3-bromo-1-(2-methoxy-6-quinolyl)pyrazolo[3,4-d]pyrimidin-6-yl]amino]-N,1-dimethyl-cyclopentane-carboxamide] as the compound, how does the IC50 [1] read?
**A.** 25 to 200 nM

**Q.** For Cc1nnc(-c2ccc(-n3nc(Br)c4cnc(N[C@@H]5CC[C@@](C)(C(=O)N6CCOCC6)C5)nc43)cc2CCC#N)s1, which IC50 [1] is on record?
**A.** 25 to 200 nM

**Q.** CNC(=O)[C@]1(C)CC[C@@H](Nc2ncc3c(Br)nn(-c4ccc(-c5ncco5)c([C@@H]5CCNC5)c4)c3n2)C1 [(1R,3R)-3-[[3-bromo-1-[4-oxazol-2-yl-3-[(3S)-pyrrolidin-3-yl]phenyl]pyrazolo[3,4-d]pyrimidin-6-yl]amino]-N,1-dimethyl-cyclopentanecarboxamide] was tested. Which IC50 [1] did it give?
**A.** < 25 nM

**Q.** Which IC50 [1] does the source give for COCCNC(=O)[C@@H]1CC[C@@H](Nc2ncc3c(Br)nn(-c4ccc(-n5cccn5)cc4)c3n2)C1 [(1R,3R)-3-((1-(4-(1H-pyrazol-1-yl)phenyl)-3-bromo-1H-pyrazolo[3,4-d]pyrimidin-6-yl)amino)-N-(2-methoxyethyl)cyclopentane-1-carboxamide] here?
**A.** 200 to 500 nM

Source: patent US11046699B2, “Pyrazolo-pyrimidin-amino-cycloalkyl compounds and their therapeutic uses” (RAPT THERAPEUTICS, INC., priority 2018, dated 2021)
